From ChEMBL document CHEMBL1201862, “PubChem BioAssay data set” (2004)
The source made the active and inactive calls.

Tests used:
[1] = Luminescence Cell-Based Dose Retest to Confirm Inhibitors of Cancer Stem Cells. [Related pubchem assays (depositor defined):AID2717, AID2721]; format: functional; details: Homo sapiens
H4 = assay: Luminescence Cell-Based Dose Response HTS to Identify Activators of 5'UTR Stem-Loop Driven Prion Protein mRNA Translation in H4 Neuroglioblastoma Cells. [Related pubchem assays: 1829 (Project Summary), 1814 (Primary HTS)]; format: functional; details: Homo sapiens
[2] = Luminescence Cell-Based Dose Response HTS to Identify Activators of Luciferase Translation or Activity in H4 […] Cells. [Related pubchem assays: 1829 (Project Summary), 1814 (Primary HTS)]; format: functional
[3] = viability of uninfected HEp-2 cells – cell-based, HTS, cytotoxicity control for RSV inhibitor project, dose response (AID 2410); format: functional; details: human respiratory syncytial virus
[4] = biological target: T1, Corticotropin-releasing factor receptor 2/Corticotropin-releasing factor-binding protein (Homo sapiens, UniProt P24387+Q13324); assay: activators of CRF receptor 2 with binding protein – uHTS hits, confirmation (AID 602473); format: functional; details: read-out: EC50_Mean
T1 sequence (Q13324 whole entry): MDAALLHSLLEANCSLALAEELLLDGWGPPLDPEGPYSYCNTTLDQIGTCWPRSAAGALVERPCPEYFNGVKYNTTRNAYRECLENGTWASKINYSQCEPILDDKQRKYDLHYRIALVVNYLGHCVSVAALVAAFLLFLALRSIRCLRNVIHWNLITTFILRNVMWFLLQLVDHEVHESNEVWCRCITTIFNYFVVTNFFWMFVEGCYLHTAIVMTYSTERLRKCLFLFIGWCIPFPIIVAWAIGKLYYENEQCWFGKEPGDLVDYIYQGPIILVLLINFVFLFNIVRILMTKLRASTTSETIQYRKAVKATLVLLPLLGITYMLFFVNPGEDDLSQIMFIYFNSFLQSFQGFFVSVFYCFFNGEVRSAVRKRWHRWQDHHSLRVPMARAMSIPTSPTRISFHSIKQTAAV
T1 sequence (P24387 whole entry): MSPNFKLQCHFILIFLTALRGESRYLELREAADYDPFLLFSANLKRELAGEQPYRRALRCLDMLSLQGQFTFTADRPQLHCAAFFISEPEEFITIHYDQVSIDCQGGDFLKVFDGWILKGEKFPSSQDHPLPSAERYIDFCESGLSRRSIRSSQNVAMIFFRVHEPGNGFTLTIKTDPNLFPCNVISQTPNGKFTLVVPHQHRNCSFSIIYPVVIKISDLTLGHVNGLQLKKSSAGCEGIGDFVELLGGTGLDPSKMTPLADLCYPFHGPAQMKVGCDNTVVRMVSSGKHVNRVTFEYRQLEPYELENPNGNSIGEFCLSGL

[5] = microbe, parasite or virus in culture; format: functional; details: Mycobacterium tuberculosis
[6] = biological target: T2, Replicative DNA helicase DnaB (Mycobacterium tuberculosis, UniProt P9WMR3); assay: DnaB intein splicing inhibitors, dose response, biochemical, cell-free fluorescence (AID 449749); format: functional
T2 sequence (P9WMR3 whole entry): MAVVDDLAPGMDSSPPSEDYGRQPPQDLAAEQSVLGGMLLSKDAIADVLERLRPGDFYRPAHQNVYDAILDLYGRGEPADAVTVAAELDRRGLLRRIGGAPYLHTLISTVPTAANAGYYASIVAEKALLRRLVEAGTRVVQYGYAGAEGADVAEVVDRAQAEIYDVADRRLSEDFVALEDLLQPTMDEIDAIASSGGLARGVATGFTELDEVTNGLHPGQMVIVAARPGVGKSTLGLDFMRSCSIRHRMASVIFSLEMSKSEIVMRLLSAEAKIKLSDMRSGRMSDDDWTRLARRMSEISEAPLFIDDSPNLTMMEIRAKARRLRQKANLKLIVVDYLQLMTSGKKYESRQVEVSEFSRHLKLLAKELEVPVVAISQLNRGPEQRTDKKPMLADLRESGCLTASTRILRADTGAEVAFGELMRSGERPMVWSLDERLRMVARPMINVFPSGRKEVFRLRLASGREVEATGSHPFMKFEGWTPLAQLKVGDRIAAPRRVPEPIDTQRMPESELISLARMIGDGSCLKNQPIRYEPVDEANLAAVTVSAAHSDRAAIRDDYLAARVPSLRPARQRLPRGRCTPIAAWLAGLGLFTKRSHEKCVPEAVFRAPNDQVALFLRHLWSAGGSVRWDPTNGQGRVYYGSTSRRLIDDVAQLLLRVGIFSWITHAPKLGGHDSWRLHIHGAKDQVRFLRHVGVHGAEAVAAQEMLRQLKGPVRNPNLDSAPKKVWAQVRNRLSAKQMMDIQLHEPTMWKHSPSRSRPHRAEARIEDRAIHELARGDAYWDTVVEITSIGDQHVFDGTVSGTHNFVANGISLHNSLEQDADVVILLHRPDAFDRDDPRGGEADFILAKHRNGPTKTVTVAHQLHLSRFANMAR

[7] = Trypanosoma cruzi growth suppression in host cells – NIH3T3 host cells, beta-gal luminescence, confirmation (AID 2044); format: functional, cell-based;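 also: intracellular parasites grown in NIH/3T3 mouse fibroblasts as host cells; luminescent beta-galactosidase reporter signal from transgenic T. cruzi replicating inside host cells; inhibitors lower the luminescence signal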
[8] = NIH3T3 cell viability loss – ATP luminescence, mouse fibroblasts, counter-screen, dose response (AID 2010); format: functional, cell-based;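 also: cells exposed to compound for about 90 hours before reading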
Protein RecA = biological target: T3, Protein RecA (Mycobacterium tuberculosis, UniProt P9WHJ3); assay: Fluorescence Cell-Free Homogeneous Dose Retest to Identify Inhibitors of RecA-Intein Splicing Activity. [Related pubchem assays (depositor defined):AID2097, AID2223, AID489010, AID492950]; format: functional
T3 sequence (P9WHJ3 whole entry): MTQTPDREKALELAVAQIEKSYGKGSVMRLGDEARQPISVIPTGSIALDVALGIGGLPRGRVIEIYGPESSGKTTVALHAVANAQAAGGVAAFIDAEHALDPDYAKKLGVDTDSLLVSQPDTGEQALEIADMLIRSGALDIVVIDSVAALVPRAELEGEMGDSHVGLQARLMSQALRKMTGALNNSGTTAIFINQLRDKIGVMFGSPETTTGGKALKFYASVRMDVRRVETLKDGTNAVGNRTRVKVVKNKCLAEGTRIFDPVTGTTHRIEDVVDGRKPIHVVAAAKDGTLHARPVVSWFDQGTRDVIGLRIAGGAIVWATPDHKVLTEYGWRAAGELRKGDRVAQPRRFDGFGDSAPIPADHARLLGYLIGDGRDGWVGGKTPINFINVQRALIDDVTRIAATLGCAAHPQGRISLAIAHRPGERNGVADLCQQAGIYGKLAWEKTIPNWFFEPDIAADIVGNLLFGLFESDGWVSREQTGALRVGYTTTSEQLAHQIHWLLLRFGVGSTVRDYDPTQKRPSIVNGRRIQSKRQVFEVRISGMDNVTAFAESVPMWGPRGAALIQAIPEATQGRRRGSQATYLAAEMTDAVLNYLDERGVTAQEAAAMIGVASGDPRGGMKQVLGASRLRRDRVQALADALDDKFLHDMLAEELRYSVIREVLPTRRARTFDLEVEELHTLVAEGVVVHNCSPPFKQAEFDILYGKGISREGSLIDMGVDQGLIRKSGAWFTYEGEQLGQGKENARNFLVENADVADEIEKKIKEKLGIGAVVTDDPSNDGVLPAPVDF

[9] = biological target: T4, Zinc finger protein mex-5 (Caenorhabditis elegans, UniProt Q9XUB2); assay: potency of MEX-5 RNA-binding blockers – biochemical, C. elegans, fluorescence polarization, dose response (AID 1960)
T4 sequence (Q9XUB2 whole entry): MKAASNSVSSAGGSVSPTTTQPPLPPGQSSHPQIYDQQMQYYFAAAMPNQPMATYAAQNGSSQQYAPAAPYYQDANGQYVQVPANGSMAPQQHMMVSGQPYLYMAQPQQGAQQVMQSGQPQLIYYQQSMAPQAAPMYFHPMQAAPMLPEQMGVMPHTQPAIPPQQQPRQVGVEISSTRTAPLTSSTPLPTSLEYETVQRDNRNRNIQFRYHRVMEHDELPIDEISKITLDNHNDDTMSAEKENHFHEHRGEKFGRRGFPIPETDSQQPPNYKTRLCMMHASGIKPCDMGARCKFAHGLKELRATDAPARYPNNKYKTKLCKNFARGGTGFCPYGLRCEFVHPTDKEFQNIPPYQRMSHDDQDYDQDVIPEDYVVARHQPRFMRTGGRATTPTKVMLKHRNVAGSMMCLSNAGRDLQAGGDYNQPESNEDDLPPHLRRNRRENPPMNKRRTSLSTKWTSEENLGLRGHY

[10] = biological target: T5, RNA-binding protein pos-1 (Caenorhabditis elegans, UniProt G5EF15); assay: disruptors of C. elegans POS-1 RNA interaction – biochemical, fluorescence polarization, dose response (AID 1964);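 also: purified POS-1 fused to maltose binding protein made in E. coli; potency of compounds blocking POS-1 binding to fluorescent RNA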
T5 sequence (G5EF15 whole entry): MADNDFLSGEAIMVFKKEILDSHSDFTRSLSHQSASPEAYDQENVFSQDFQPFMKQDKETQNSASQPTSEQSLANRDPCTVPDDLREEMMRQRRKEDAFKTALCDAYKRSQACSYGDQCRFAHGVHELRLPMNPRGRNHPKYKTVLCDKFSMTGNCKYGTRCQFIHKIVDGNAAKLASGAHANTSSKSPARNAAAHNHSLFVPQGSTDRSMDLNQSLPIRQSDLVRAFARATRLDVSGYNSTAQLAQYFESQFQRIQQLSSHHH

[11] = viability of PTEN-deleted HCT116 cells – cell-based, HCT116 PTEN knockout, dose response (AID 1047); format: functional;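 also: HCT116 colon tumor cells with PTEN knocked out; cells exposed to compound for 60 hours before readout; potency for loss of cell viability measured by luminescence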
P388 = assay: cells; format: functional; details: Mus musculus;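 also: compound exposure lasted 48 hours before growth was measured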
SN12K1 = assay: cells; format: functional; details: Homo sapiens
[12] = luciferase reporter signal suppression in cells – H4 neuroglioma cells, luminescence, dose response (AID 1990); format: functional, cell-based
[13] = loss of viability in HepG2 cells – cell-based, CellTiter-Glo, cherry-picked, cytotoxicity control for Shn3 inhibitor project, dose response (AID 624134); format: functional
[14] = alpha-synuclein stem-loop luciferase translation blockers – H4 neuroglioma cells, luminescence, confirmation (AID 1988); format: functional, cell-based
[15] = reduction of Shn3 3'UTR-driven luciferase in osteoblasts – cell-based, Clone20 osteoblasts, firefly luciferase, cherry-picked, dose response (AID 624132); format: functional;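 also: firefly luciferase luminescence from reporter carrying the Shn3 3'UTR in osteoblasts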
[16] = non-specific 3'UTR reporter inhibition in Clone20-Shn3RL – cell-based, Renilla luciferase, cherry-picked, counter-screen for Shn3 inhibitor project, dose response (AID 624133); format: functional
INS1 = assay: INS-1E survival protection against cytokine death – cell-based, luminescence, retest, dose response (AID 449756); format: functional; details: Rattus norvegicus;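 also: cell death triggered by IL-1 beta plus TNF-alpha plus IFN-gamma mixture; protective hits raise ATP signal compared with cytokine alone wells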
[17] = Luminescence Cell-Based Dose Response HTS to Identify Inhibitors of 5'UTR Stem-Loop Driven Prion Protein mRNA Translation in H4 Neuroglioblastoma Cells. [Related pubchem assays: 1827 (Project Summary), 1813 (Primary HTS)]; format: functional

C/C(NC(=O)c1cccc(F)c1)=C1/C(=O)C[C@@H]2[C@H]1C2(C)C
AC50 [1]: 1.24 µM (active) | EC50 (H4): 17.8 µM (active) | EC50 [2]: 29.7 µM (active)

Cc1ccc(NC(=O)CN(C)CC(=O)Nc2sc3c(c2C(N)=O)CCC3)cc1
CC50 [3]: 28.1 µM (active)

O=C(Nc1ccc(N2CCOCC2)cc1)c1cc2c(s1)CCCCC2
CC50 [3]: 23.8 µM (active)

COc1ccc(CN2C[C@H](Cc3ccccc3)[C@@H](CC(=O)Nc3ccccc3)C2=O)cc1
CC50 [3]: 22 µM (active)

CCOC(=O)c1cnc(SCc2cccc(C)c2)nc1N
CC50 [3]: 43.8 µM (active)

CCCN1CCc2c(sc(NC(=O)c3ccc(S(=O)(=O)N4CCCC4)cc3)c2C(N)=O)C1
EC50 [4]: 3.22 µM (active)

CCCn1c(N2CCN(Cc3ccc(Cl)cc3)CC2)nc2ccccc21
CC50 [5]: > 40 µM (active)

NC(=O)c1cc(-c2csc(-c3cccnc3)n2)ccc1O
CC50 [3]: 22.7 µM (active)

Cc1cc[n+](C2=C([N-]S(=O)(=O)c3cccs3)C(=O)c3ccccc3C2=O)cc1C
AC50 [6]: 3.69 µM (active) | EC50 [7]: > 60 µM (not active) | EC50 [8]: > 30 µM (not active) | EC50 (Protein RecA): 3.8 µM (active) | EC50 [9]: > 300 µM (not active) | EC50 [10]: > 300 µM (not active)

Cc1nn(CCc2nn[nH]n2)c2nc(-c3ccc(Br)cc3)cc(C(F)(F)F)c12
CC50 [5]: > 40 µM (active)

CCOC(=O)N1CCN(c2nc(N(c3ccccc3)c3ccccc3)nc(-n3ccnc3)n2)CC1
CC50 [5]: > 40 µM (active)

CC(=O)Nc1cccc(-c2cc(-c3c(Cl)cccc3Cl)no2)c1
CC50 [3]: 18.3 µM (active)

CC(C)(C)N1CC2([N+](=O)[O-])CN(C(C)(C)C)CC([N+](=O)[O-])(C1)C2
EC50 [4]: 4.6 µM (active)

O=C(Nc1ccccc1)c1cc2n(n1)C(C(F)(F)F)CC(C1CC1)N2 (stereo unspecified)
EC50 (H4): > 120 µM (not active) | EC50 [2]: 5.46 µM (active)

CCOc1ccc(S(=O)(=O)N2CCN(C(=O)c3cc4c(s3)CCCC4)CC2)cc1
CC50 [5]: > 40 µM (active) | CC50 [3]: 28.8 µM (active)

Cc1nn(Cc2ccccc2Cl)c2sc(C(=O)NCCCn3ccnc3)cc12
CC50 [5]: > 40 µM (active)

S=C(NCCc1ccc(Cl)cc1)Nc1ccc(Cl)cc1Cl
EC50 [11]: 30.9 µM (active)

CC(=O)CSc1ncnc2c1cnn2-c1ccccc1
CC50 [3]: 42.5 µM (active)

Cc1cccnc1N=C(S)NCCc1ccccc1
EC50 (H4): 12.9 µM (inconclusive) | EC50 [2]: 21.7 µM (active)

Nc1ncc(CN2CCCC2)c(-c2ccccc2O)n1
GI50 (P388): > 100 µM (inactive) | GI50 (SN12K1): > 100 µM (inactive)

COc1cc2nc(N3CCN(c4cc(C)ccc4C)CC3)nc(N)c2cc1OC
EC50 [12]: > 120 µM (not active) | AC50 [13]: 10.2 µM (active) | EC50 [7]: 3.35 µM (active) | EC50 [14]: > 120 µM (not active) | EC50 [8]: 16.7 µM (active) | AC50 [15]: 5.44 µM (active) | AC50 [16]: 12.7 µM (active) | AC50 (INS1): 7.37 µM (active) | CC50 [5]: 3.41 µM (active) | EC50 [17]: > 120 µM (not active)
